# Data from BindingDB's records for doi:10.1080/14756360500179333 (University of Karachi, 2005).
# pIC50: −log10 of the molar value.
# Biological target: Tyrosinase (Agaricus bisporus)
# Assay: Tyrosinase inhibition assays were performed in a 96-well microplate format using SpectraMax 340 (Molecular Devices, CA, USA) microplate reader according to method developed earlier.
# Conditions: pH 6.8
row,pIC50,SMILES
1,5.76,"Cc1ccc(CN2CCC(N3CCCCC3)CC2)cc1 [Tyrosinase Inhibitor, 4]"
2,4.52,CC(=O)N1CCC(N2CCCCC2)CC1
3,5.06,"O=[N+]([O-])c1ccc(S(=O)(=O)N2CCC(N3CCCCC3)CC2)cc1 [Tyrosinase Inhibitor, 8]"

row,SMILES,pIC50
1,"C1CCN(C2CCNCC2)CC1 [Tyrosinase Inhibitor, 1]",3.96
